Test results reported in ChEMBL document CHEMBL5385887, “Discovery of Sibiriline derivatives as novel receptor-interacting protein kinase 1 inhibitors” (Eur J Med Chem, 2023).
Calls of active or inactive are those of the source. The calls are words filed in the database; no cut-off is given here.

Tests used:
Mus musculus [1] = assay: (§1) In vivo anti-necroptotic effect in TNFalpha-induced systemic inflammatory response syndrome C57BL/6J mouse model assessed as reduction in hypothermic injury by measuring increase in survival at 25 mg/kg, ip followed by compound treatment after 1 hr injected moue TNFalpha and measured continuously upto 72 hrs; format: functional; conditions: time 73 hrs
U-937 = assay: Anti-necroptosis activity against TSZ-induced human U937 cell necroptosis model assessed as cell viability pretreated with compound for 1 hr followed by treated with TSZ for 12 hrs; format: functional, cell-based; conditions: dose 0.039-10 µM, time 13.0 hrs
[2] = biological target: Receptor-interacting serine/threonine-protein kinase 3 (Mus musculus) (UniProt Q9QZL0); assay: Inhibition of RIPK3 phosphorylation in mouse L929 cells at 250 nM by Western blotting analysis; format: cell-based; conditions: time 0.5-2.5 hrs, TDE = time-dependent effect
[3] = biological target: T1, Receptor-interacting serine/threonine-protein kinase 1 (Homo sapiens, UniProt Q13546); assay: Inhibition of RIPK1 (unknown origin) using MBP substrate incubated for 2 hrs by ADP-Glo kinase function assay
T1 sequence (Q13546 whole entry): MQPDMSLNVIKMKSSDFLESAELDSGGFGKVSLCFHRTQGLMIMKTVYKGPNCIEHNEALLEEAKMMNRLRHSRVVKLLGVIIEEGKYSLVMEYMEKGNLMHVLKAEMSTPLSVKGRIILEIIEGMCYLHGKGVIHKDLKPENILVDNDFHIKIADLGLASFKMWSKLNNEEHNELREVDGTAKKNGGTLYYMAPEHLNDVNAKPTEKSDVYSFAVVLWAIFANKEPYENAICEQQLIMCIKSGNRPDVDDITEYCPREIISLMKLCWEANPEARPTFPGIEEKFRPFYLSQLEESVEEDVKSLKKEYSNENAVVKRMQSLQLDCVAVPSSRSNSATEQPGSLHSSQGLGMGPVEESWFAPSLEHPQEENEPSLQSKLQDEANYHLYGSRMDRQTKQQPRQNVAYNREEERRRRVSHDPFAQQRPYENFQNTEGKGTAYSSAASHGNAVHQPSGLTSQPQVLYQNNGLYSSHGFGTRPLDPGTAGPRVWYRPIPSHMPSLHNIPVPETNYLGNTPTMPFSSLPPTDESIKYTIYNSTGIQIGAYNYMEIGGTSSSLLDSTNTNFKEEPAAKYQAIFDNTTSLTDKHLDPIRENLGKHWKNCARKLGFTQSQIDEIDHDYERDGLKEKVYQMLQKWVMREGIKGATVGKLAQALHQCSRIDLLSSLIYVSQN

Mus musculus [4] = assay: as §1, with “10” for “25”; format: functional; conditions: time 73 hrs
L929 [5] = assay: Anti-necroptosis activity against TNFalpha/z-VAD-fmk-induced mouse L929 cell necroptosis model assessed as prevention of necroptosis pretreated with compound for 1 hr followed by treated with TZ for 6 hrs by Hoechst 33342/PI staining based flow cytometric analysis; format: functional; conditions: dose 10-250 nmol/L, time 7.0 hrs
HT-29 [6] = assay: Anti-necroptosis activity against TSZ-induced human HT-29 cell necroptosis model assessed as cell viability pretreated with compound for 1 hr followed by treated with TSZ for 12 hrs; format: functional, cell-based; conditions: dose 0.039-10 µM, time 13.0 hrs
[7] = biological target: T2, Receptor-interacting serine/threonine-protein kinase 1 (Mus musculus) (UniProt Q60855); assay: Inhibition of RIPK1 phosphorylation in mouse L929 cells at 250 nM by Western blotting analysis; format: cell-based; conditions: time 0.5-2.5 hrs, TDE = time-dependent effect
T2 sequence (whole entry): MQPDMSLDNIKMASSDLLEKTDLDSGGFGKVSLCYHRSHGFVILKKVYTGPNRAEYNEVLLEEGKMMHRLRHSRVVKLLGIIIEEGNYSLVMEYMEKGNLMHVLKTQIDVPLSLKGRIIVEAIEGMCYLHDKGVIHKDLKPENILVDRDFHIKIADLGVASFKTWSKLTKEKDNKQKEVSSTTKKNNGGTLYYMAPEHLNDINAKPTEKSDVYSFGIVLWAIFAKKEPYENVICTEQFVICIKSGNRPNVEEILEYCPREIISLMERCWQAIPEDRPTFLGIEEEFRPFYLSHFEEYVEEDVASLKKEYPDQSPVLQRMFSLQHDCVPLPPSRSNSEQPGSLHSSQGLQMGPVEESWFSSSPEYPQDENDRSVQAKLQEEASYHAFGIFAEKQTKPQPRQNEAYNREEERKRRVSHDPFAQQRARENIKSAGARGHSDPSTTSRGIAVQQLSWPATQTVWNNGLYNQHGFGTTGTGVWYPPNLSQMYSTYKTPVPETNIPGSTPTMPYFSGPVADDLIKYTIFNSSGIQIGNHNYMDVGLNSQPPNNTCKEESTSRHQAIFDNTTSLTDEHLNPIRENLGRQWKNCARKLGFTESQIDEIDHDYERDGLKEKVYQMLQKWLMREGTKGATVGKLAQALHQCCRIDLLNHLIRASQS

Mus musculus [8] = assay: In vivo anti-necroptotic effect in TNFalpha-induced systemic inflammatory response syndrome C57BL/6J mouse model assessed as reduction in hypothermic injury at 10 to 40 mg/kg, ip followed by compound treatment after 1 hr injected moue TNFalpha and measured continuously upto 72 hrs; format: functional, organism-based; conditions: dose 10-40 mg/kg, time 73.0 hrs
L929 [9] = assay: Anti-necroptosis activity against TNFalpha/z-VAD-fmk-induced mouse L929 cell necroptosis model assessed as cell viability pretreated with compound for 1 hr followed by treated with TZ for 6 hrs; format: functional, cell-based
HT-29 [10] = assay: Anti-necroptosis activity against TS-induced human HT-29 cell necroptosis model assessed as cell viability at 0.039 to 10 uM pretreated with compound for 1 hr followed by treated with TS for 12 hrs; format: functional, cell-based; conditions: dose 0.039-10 µM
L929 [11] = assay: Anti-necroptosis activity against TNFalpha/z-VAD-fmk-induced mouse L929 cell necroptosis model assessed as increase in viable cells pretreated with compound for 1 hr followed by treated with TZ for 6 hrs by Hoechst 33342/PI staining based flow cytometric analysis; format: functional; conditions: time 7.0 hrs
[12] = biological target: T3, Mixed lineage kinase domain-like protein (Mus musculus) (UniProt Q9D2Y4); assay: Inhibition of MLKL phosphorylation in mouse L929 cells at 250 nM incubated for 0.5 to 2.5 hrs by Western blotting analysis; format: cell-based; conditions: time 0.5-2.5 hrs
T3 sequence (whole entry): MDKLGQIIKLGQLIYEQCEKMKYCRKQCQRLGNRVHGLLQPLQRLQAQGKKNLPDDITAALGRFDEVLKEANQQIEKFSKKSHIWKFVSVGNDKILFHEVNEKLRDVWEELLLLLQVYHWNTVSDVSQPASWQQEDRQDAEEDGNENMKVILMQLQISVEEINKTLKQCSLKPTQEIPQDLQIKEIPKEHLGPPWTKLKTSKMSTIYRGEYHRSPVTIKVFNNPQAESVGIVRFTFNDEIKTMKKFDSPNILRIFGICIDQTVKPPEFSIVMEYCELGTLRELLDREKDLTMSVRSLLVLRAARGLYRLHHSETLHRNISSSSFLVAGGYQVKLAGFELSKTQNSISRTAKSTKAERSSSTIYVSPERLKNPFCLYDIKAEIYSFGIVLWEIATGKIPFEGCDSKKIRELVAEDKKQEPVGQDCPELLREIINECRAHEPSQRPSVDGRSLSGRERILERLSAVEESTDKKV

[13] = Cytotoxicity against mouse L929 cells by CCK-8 assay; format: toxicity, cell-based
Mus musculus [14] = assay: as §1, with “40” for “25”; format: functional; conditions: time 73 hrs

Receptor-interacting serine/threonine-protein kinase 3 (Mus musculus), sequence (Q9QZL0 whole entry): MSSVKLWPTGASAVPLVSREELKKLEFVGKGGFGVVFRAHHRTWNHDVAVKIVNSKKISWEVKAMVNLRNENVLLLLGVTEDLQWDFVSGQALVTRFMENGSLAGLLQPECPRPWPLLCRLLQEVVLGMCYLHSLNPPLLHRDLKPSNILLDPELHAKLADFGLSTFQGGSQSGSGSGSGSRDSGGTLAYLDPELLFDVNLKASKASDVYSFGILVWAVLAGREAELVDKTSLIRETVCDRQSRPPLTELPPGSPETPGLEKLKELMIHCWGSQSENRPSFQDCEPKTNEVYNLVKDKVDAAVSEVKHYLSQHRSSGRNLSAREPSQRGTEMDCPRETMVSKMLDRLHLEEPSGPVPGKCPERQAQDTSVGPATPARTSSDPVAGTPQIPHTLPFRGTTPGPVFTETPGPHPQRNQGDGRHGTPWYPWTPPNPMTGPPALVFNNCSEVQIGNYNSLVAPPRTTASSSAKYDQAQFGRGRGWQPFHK

## O=C(c1ccc(-c2cc3cccnc3[nH]2)cc1)N1CCOCC1
Mus musculus [1]
  survival at 25 mg/kg: 100%
U-937
  Activity: Dose-Dependent Effect
[2]
  inhibition: Tde
[3]
  IC50: 88 nM
Mus musculus [4]
  survival at 10 mg/kg: 75%
L929 [5]
  Activity: Dose-Dependent Effect
HT-29 [6]
  Activity: Dose-Dependent Effect
[7]
  inhibition: Tde
Mus musculus [8]
  Activity: Active
L929 [9]
  EC50: 56 nM
HT-29 [10]
  Activity: inactive
L929 [11]
  Activity: Active
[12]
  inhibition: Active
[13]
  CC50: > 50000 nM
Mus musculus [14]
  survival at 40 mg/kg: 100%
